These results are taken from patent publication US5814666A, “Encapsulated and non-encapsulated nitric oxide generators used as antimicrobial agents” (The United States as represented by the Department of …, priority 1995, dated 1998).

In data set [1] the test system is DNA synthesis. As to conditions: in words; cited from earlier work.
A short description of data set [2]: Half-life of nitric oxide generators at pH 7.4 and 37° C. (Table 1).
Data set [3] concerns Francisella tularensis. Format: in vivo, mice.
Data set [4] deals with Candida albicans. Nature of the data set: microbe, parasite or virus in culture. Format: cell-based. As to conditions: read-out: IC50 (growth inhibition).
In data set [5] the test system is Francisella tularensis. Nature of the data set: microbe, parasite or virus in culture. Particulars: read-out: IC50 (growth inhibition). Format: cell-based.
The subject of data set [6] is Leishmania major. Nature of the data set: microbe, parasite or virus in culture. Format: cell-based. As to conditions: read-out: IC50 (growth inhibition).
The subject of data set [7] is Leishmania major. Nature of the data set: Blocking Leishmania major growth in vitro compared with glucantime. The format is cell-based. As to conditions: equivalent molar concentrations of NONOates and glucantime.
The subject of data set [8] is P. falciparum clone CDC/Indochina III (W2). Put plainly: Anti-malaria in vitro screen, P. falciparum clone W2. Particulars: Plasmodium falciparum.
The subject of data set [9] is P. falciparum clone CDC/Sierra Leone I (D6). Nature of the data set: Anti-malaria in vitro screen, P. falciparum clone D6. As to conditions: Plasmodium falciparum.
For data set [10], the system named is macrophages. Put plainly: NO2^- / NO release by macrophages after exposure to liposome-encapsulated or non-encapsulated NONOates (Table 8). As to conditions: non-encapsulated; 50 μM, 1 hr incubation, culture medium after 24 hrs.
Data set [11] is described as follows: Stability of nitric oxide generators in PBS at room temperature, absorbance (Table 5). As to conditions: for Initial Abs. / 24-hour Abs.: PBS, at peak wavelength; for Initial Abs.: immediately; for 24-hour Abs.: room temperature; for degraded at 24 h: pbs.
Data set [12] is described as follows: physchem. Particulars: pH 7.4.
In data set [13] the test system is Plasmodium falciparum. Put plainly: Anti-malaria in vitro screen, overall result. Particulars: in words.
The conditions of data set [14]: pH 7.4.
For data set [15] the following is noted: in words; cited from earlier work.
Data set [16] concerns tumor cells. Particulars: tumor cells in vitro; in words; cited from earlier work.
Data set [17] has as its system Mycobacterium tuberculosis. Particulars: direct delivery; in words; cited from earlier work.
Setting [18] is: pH 7.4, 37° C., result in words.
[19] abbreviates: experiment #1, IP 200 μM two days after inoculation.

Converted amounts (≈) assume the structure as drawn. Where a name gives a salt, the structure may show the parent alone. Read-outs that look alike come from different tables or passages of the source. A value given as a limit tells only on which side of the number the result lay.

For the compound `CC(=O)N[C@H](C(=O)O)C(C)(C)SN=O` (racemic) [S-nitroso-N-acetylpenicillamine], in data set [1], the “inhibition of DNA synthesis” value is recorded as “effective at inhibiting DNA synthesis”.
Regarding `C=CCON=[N+]([O-])N(CC)CC` [A-DEA/NO], in [2] (setting [18]), the Half-life result is given as “stable”.
As for `C=CCON=[N+]([O-])NC(C)C` [A-IPA/NO], in data set [2] (setting [18]), the Half-life entry is given as “stable”.
On the same count and under the same terms, the result for `CCN(CC)[N+]([O-])=NOCCBr` [BE-DEA/NO] reads “stable”; that for `CCOC(=O)CON=[N+]([O-])NC(C)C` [CEM-IPA/NO], “stable”.
Turning to `CCN(CC)[N+]([O-])=NO` [DEA/NO, diethylamine-bis(nitric oxide) adduct sodium salt], in [3] (setting [19]), the “#Dead/Total” value is listed as 5/5 and the “% Protected” value stood at 0%. In [2] (pH 7.4), this compound gave a Half-life of 2 min.
As to `NCCN(CCN)[N+]([O-])=NO` [DETA/NO], the IC50 was below 100 µM in data set [4]; below 100 µM in [5]; below 10000 µM in data set [6]; 0.037 µg/mL (≈ 0.227 µM) in [8]; 4.83 µg/mL (≈ 29.6 µM) in data set [9]. Also, the “times more effective than glucantime at blocking Leishmania major growth” value (“times more effective than glucantime” for short) in data set [7] is listed as 7.2 times. Moreover, the IC90 was 0.094 µg/mL (≈ 0.576 µM) in [8] and 10.1 µg/mL (≈ 62 µM) in data set [9]. The “NO2 --(nmol/ml)” value in [10] was 0 nmol/mL.
For `CCON=[N+]([O-])N(CC)CC` [E-DEA/NO], the Half-life entry in [2] (setting [18]) was “stable”.
Consider `CCN(CC)[N+]([O-])=NOCCO` [HE-DEA/NO], for which the Half-life entry in data set [2] (setting [18]) is “stable”.
With `CCN(CC)[N+]([O-])=NOCC(C)O` (stereo not drawn) [HP-DEA/NO], the Half-life entry in data set [2] (setting [18]) is listed as “stable”.
`CCN(CC)[N+]([O-])=NOC` [M-DEA/NO]: the Half-life entry in data set [2] (setting [18]) is reported as “stable”. In addition, in [11], the “Initial Abs.” value is recorded as 3.454, the “24-hour Abs.” value is 3.020 and the degraded at 24 h is 14%.
In the case of `CON=[N+]([O-])NC(C)C` [M-IPA/NO], in [2] (setting [18]), the Half-life entry is “stable”.
With `CCN(CC)[N+]([O-])=NOCOC` [MOM-DEA/NO], the “#Dead/Total” value in data set [3] (setting [19]) is listed as 1/5; in data set [3] (experiment #2, IP 200 μM two days after inoculation), 1/5. In addition, the “% Protected” value in [3] (setting [19]) is recorded as 80%; in data set [3] (experiment #2, IP 200 μM, control 40% protected), 80%. Besides, in data set [3] (two subsequent experiments, in words), the anti-microbial effects entry is listed as “not found to be significant in two subsequent experiments”. This compound also showed a Half-life in [2] (pH 7.4) of 7200 min.
Regarding `COCON=[N+]([O-])NC(C)C` [MOM-IPA/NO], the Half-life entry in data set [2] (setting [18]) is “stable”. In addition, in [11], the “Initial Abs.” value is listed as 3.530, the “24-hour Abs.” value is 3.340 and the degraded at 24 h amounted to 5%.
In turn, `[Na+].[Na+].[O-][N+]([O-])=NO` [OXI/NO, sodium trioxodinitrate(II) monohydrate] registered a Half-life in data set [2] (pH 7.4, 37° C.) of 2 min.
With `CCCON=[N+]([O-])N(CC)CC` [P-DEA/NO], the Half-life result in [2] (setting [18]) is “stable”.
On to `CCN(CC)[N+]([O-])=NOS(=O)(=O)N(C)C` [S-DEA/NO], for which the Half-life in [2] (pH 7.4) was determined as 30 min.
On to `NCCCNCCCCN(CCCN)[N+]([O-])=NO` [SPER/NO, spermine-bis(nitric oxide) adduct monohydrate], for which the half-maximal inhibitory concentration (IC50) in data set [4] is below 100 µM; in data set [5] it was below 10 µM; in data set [6], below 100 µM; in data set [8], 5.65 µg/mL; in data set [9], 5.31 µg/mL. For the same compound, the “times more effective than glucantime” value in data set [7] came to 6.7 times. Besides, the Half-life in [12] amounted to 39 min. For the same compound, the anti-malarial effectiveness entry in [13] is reported as “effective”. Besides, the 90% effect concentration (IC90) stood at 10 µg/mL in data set [8] and 9.53 µg/mL in [9]. Moreover, the “NO2 --(nmol/ml)” value in data set [10] was 1 ± 1 nmol/mL.
`N.N.O=S(=O)(O)[N+]([O-])=NO` [SULFI/NO]: the Half-life in [14] turned out to be 7 min.
Turning to `C=CON=[N+]([O-])N(CC)CC` [V-DEA/NO], the Half-life result in data set [2] (setting [18]) is “stable”.
Regarding `CCN(CC)[N+]([O-])=NOCOC(C)=O` [acetoxy-DEA/NO], in [3] (setting [19]), the “#Dead/Total” value is listed as 2/4 and the “% Protected” value amounted to 50%. The “times more effective than glucantime” value in data set [7] is reported as 8.9 times. Further, the anti-malarial effectiveness entry in data set [13] is recorded as “effective”. For the same compound, in data set [8], it took 17.7 µg/mL (≈ 86.5 µM) to reach half-maximal inhibition (IC50) and the concentration for an effect of 90% (IC90) was determined as 19.2 µg/mL (≈ 93.4 µM). In data set [9], the IC50 was 0.267 µg/mL (≈ 1.3 µM) and it took 0.295 µg/mL (≈ 1.44 µM) to reach the 90% level (IC90). For the same compound, the Half-life entry in data set [2] (setting [18]) is “stable”.
On to `O=[N+]([O-])OCC(CO[N+](=O)[O-])O[N+](=O)[O-]` [glyceryl trinitrate], for which the tolerance / toxicity result in [15] is recorded as “development of tolerance”.
In the case of nitric oxide, in data set [16], the “inhibition of DNA synthesis and mitochondrial respiration” value was “inhibit DNA synthesis and mitochondrial respiration of tumor cells in vitro”. The “killing of intracellular pathogens” value in data set [17] is “kills intracellular pathogens such as Mycobacterium tuberculosis”.

Broadly, the IC50 is the concentration needed to halve the response being measured. The term IC90 denotes the concentration at which the effect reaches the 90% level. Low values mean greater potency, high ones weaker potency.
